Experiments:
Format in all cases: cell-based
H. influenzae Ql = assay: in vitro MIC against H. influenzae Ql; conditions: Haemophilus influenzae
Method: (§1) The compound of the Example was tested in vitro against a number of microorganisms.

H. influenzae NEMCl = assay: in vitro MIC against H. influenzae NEMCl; conditions: Haemophilus influenzae
Method: as §1

E. Coli ESS = assay: in vitro MIC against E. Coli ESS; conditions: Escherichia coli
Method: as §1

B. catarrhalis Ravasio = assay: in vitro MIC against B. catarrhalis Ravasio; conditions: Moraxella catarrhalis
Method: as §1

S. aureus Oxford = assay: in vitro MIC against S. aureus Oxford; conditions: Staphylococcus aureus
Method: as §1

S. aureus Russell = assay: in vitro MIC against S. aureus Russell; conditions: Staphylococcus aureus
Method: as §1

S. aureus MB9 = assay: in vitro MIC against S. aureus MB9; conditions: Staphylococcus aureus
Method: as §1

S. epidermidis PHLN20 = assay: in vitro MIC against S. epidermidis PHLN20; conditions: Staphylococcus epidermidis
Method: as §1

S. pyogenes CN10 = assay: in vitro MIC against S. pyogenes CN10; conditions: Streptococcus pyogenes
Method: as §1

S. agalacticae 2798 = assay: in vitro MIC against S. agalacticae 2798
Method: as §1

S. pneumoniae 1761 = assay: in vitro MIC against S. pneumoniae 1761; conditions: Streptococcus pneumoniae
Method: as §1

CC1(C)S[C@@H]2[C@H](NC(=O)/C(=N\OC3CCCCC3)c3cccc(N)n3)C(=O)N2[C@H]1C(=O)O [Example 1, Sodium 6-β-[2-(2-aminopyridin-6-yl) 2-(Z)-cyclohexyl-oxiyminoacetamido]penicillinate]
MIC (H. influenzae Ql): 1 µg/mL | MIC (H. influenzae NEMCl): 1 µg/mL | MIC (E. Coli ESS): 0.12 µg/mL | MIC (B. catarrhalis Ravasio): 0.5 µg/mL | MIC (S. aureus Oxford): 0.5 µg/mL | MIC (S. aureus Russell): 0.5 µg/mL | MIC (S. aureus MB9): 2 µg/mL | MIC (S. epidermidis PHLN20): 0.5 µg/mL | MIC (S. pyogenes CN10): < 0.03 µg/mL | MIC (S. agalacticae 2798): 0.25 µg/mL | MIC (S. pneumoniae 1761): < 0.03 µg/mL

From patent US4918067A, “Heterocyclic substituted penicillin antibiotics” (Beecham Group p.l.c., priority 1986, dated 1990)
